Tested on: iMSCs
Experiment: iMSC expansion, seeded at 1000 cells/well, day 10 morphology and cell number
Type: cell-based
Experimental: Cryopreserved iMSCs (RC01005, Nuwacell Co., Ltd.) were seeded in 6-well plates at 1000 cells/well in M1 medium to thaw the cells. The medium was replaced 24 h later with 2 ml/well of the following medium: M1; or M2 (5% HPLT) further supplemented with or without one or more growth factors (F: FGF2 (10 ng/ml, Nuwacell Co., Ltd.); P: PDFG-BB (10 ng/ml, Cat. No.: 100-14B-100, Peprotech); T: TGFβ1 (1 ng/ml, Cat. No.: 100-21, Peprotech)) in the absence or presence of hydrocortisone (1 μM, Cat. No.: 4098, Tocris). […] The medium was changed with the same medium every three days. On day 10 of culture, the cells were digested by solase (RP01021, Nuwacell Co., Ltd.) for 3 min and collected, and then centrifugated, and with the supernatant removed, resuspended in the corresponding medium, and the number of iMSC cells was counted by cell viability analyzer (Vi-CELLTMXR, BECKMAN COULTER) (FIG. 5).

heparin sodium
effect of addition to M3 on iMSC growth (Example 13, 4 mg/L dialyzed HSA, 25 μg/ml heparin sodium, FIG. 13): could further promote iMSC growth

C[C@]12CCC(=O)C=C1CC[C@@H]1[C@@H]2[C@@H](O)C[C@@]2(C)[C@H]1CC[C@]2(O)C(=O)CO [hydrocortisone]
effect of addition on iMSC proliferation (Example 5, hydrocortisone 1 μM added to M2 (5% HPLT)): could promote the iMSC proliferation
